System: zebrafish (Danio rerio) AB strain embryos
Assay: Acute toxicity testing using zebrafish embryos (mortality after 48 hr exposure)
Assay type: in vivo
Conditions: positive control, 3.7 mg/L; 48 hr exposure at 26° C.
Experimental: Extracts prepared as described in Example 1 were tested for acute toxicity using zebrafish (Danio rerio) AB strain embryos. BB cream extracts were diluted into zebrafish embryo culture medium at nominal concentrations of 0.3, 0.6, 1.4, 3.0 and 6.7 g/L. Zebrafish AB strain embryos of 4-128 cell stages were exposed to extract dilutions in a 96-well plate at 1 embryo per well. Each concentration was tested with 20 embryos. Zebrafish embryo culture medium and 3.7 mg/L dichloroaniline were included as negative and positive controls, respectively. After 48 hr exposure at 26° C., zebrafish embryos were observed under a stereomicroscope and fish embryos that were coagulated, tail not detached, and having no heart beat were marked as dead. Mortality rate for each concentration was calculated as the acute toxicity endpoint. The mortality rate for the negative control was 0% and for the positive control was 30%. […] Of the three BB cream extracts, brand C was the most toxic and brand B was the least toxic to zebrafish embryos.

Nc1ccc(Cl)c(Cl)c1 [dichloroaniline]
mortality rate: 30%

Source: patent US20170356900A1, “TOXICANT ASSAYS FOR COSMETIC PRODUCTS” (priority 2016, published 2017)
